Source: the supplement of paper PMC10307832

Compound: CC1(COc2ccc3c(c2)ncn3-c2ccc3cccc(N4CCC(N)CC4)c3n2)COC1 [Crenolanib] + CS(=O)(=O)CCNCc1ccc(-c2ccc3ncnc(Nc4ccc(OCc5cccc(F)c5)c(Cl)c4)c3c2)o1 [Lapatinib] (partner 2 µM)
Test: relative viability (nuclei count vs DMSO), 5 days (fraction); higher = more cells survive
Conditions: first compound 0.1 µM
How it was run: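 Relative viability equals treated-well nuclei counts divided by vehicle-well nuclei counts. Counts came from 4× images of lung cancer cell lines grown in 1536-well plates for 5 days after pin-tool dosing on the day after seeding. Dosing used one drug alone or a fixed anchor-drug dose plus five library-drug doses (not always all listed) in √10 steps, and values are medians of duplicate plates.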

Q: For NCI-H596, which relative viability is on record?
A: 0.89

Q: How did the relative viability turn out when NCI-H2228 was run?
A: 0.969

Q: With EMC-BAC-2 as the cell line, how does the relative viability read?
A: 0.882

Q: How did the relative viability turn out when NCI-H2087 was run?
A: 0.985

Q: For Calu-6, which relative viability is on record?
A: 1.05

Q: With HCC-44 as the cell line, how does the relative viability read?
A: 0.901

Q: NCI-H1703 was tested. Which relative viability did it give?
A: 0.262

Q: For NCI-H647, which relative viability is on record?
A: 1.05

Q: Which relative viability does the source give for LK-2 here?
A: 0.935

Q: How did the relative viability turn out when NCI-H2126 was run?
A: 0.745

Q: With SK-MES-1 as the cell line, how does the relative viability read?
A: 0.422

Q: Which relative viability does the source give for HARA here?
A: 0.645

Q: Which relative viability does the source give for COR-L23 here?
A: 0.836

Q: With COR-L 105 as the cell line, how does the relative viability read?
A: 0.345

Q: LC-2-ad was tested. Which relative viability did it give?
A: 0.982

Q: With LU99A as the cell line, how does the relative viability read?
A: 1

Q: With NCI-H2170 as the cell line, how does the relative viability read?
A: 0.281

Q: For NCI-H3122, which relative viability is on record?
A: 1.01

Q: How did the relative viability turn out when IA-LM was run?
A: 0.732

Q: HCC-78 was tested. Which relative viability did it give?
A: 0.705

Q: How did the relative viability turn out when A549 was run?
A: 0.948

Q: For NCI-H1395, which relative viability is on record?
A: 0.915

Q: How did the relative viability turn out when NCI-H1299 was run?
A: 0.905

Q: NCI-H1793 was tested. Which relative viability did it give?
A: 0.475

Q: For NCI-H1650, which relative viability is on record?
A: 0.783

Same assay, conditions: first compound 0.3162 µM

Q: NCI-H838 was tested. Which relative viability did it give?
A: 1.02

Q: How did the relative viability turn out when NCI-H1651 was run?
A: 0.945

Q: How did the relative viability turn out when EBC-1 was run?
A: 0.202

Q: Which relative viability does the source give for NCI-H1734 here?
A: 1.27

Q: Which relative viability does the source give for NCI-H2009 here?
A: 0.913

Q: EPLC-272H was tested. Which relative viability did it give?
A: 0.977

Q: With PC-14 as the cell line, how does the relative viability read?
A: 0.335

Q: For LCLC-97TM1, which relative viability is on record?
A: 0.959

Q: How did the relative viability turn out when NCI-H596 was run?
A: 1.14

Q: With NCI-H2228 as the cell line, how does the relative viability read?
A: 1.27

Q: EMC-BAC-2 was tested. Which relative viability did it give?
A: 0.931

Q: Which relative viability does the source give for NCI-H2087 here?
A: 1.18

Q: For Calu-6, which relative viability is on record?
A: 1.27

Q: How did the relative viability turn out when HCC-44 was run?
A: 0.999

Q: With NCI-H1703 as the cell line, how does the relative viability read?
A: 0.257

Q: How did the relative viability turn out when NCI-H647 was run?
A: 1.16

Q: How did the relative viability turn out when LK-2 was run?
A: 0.938

Q: How did the relative viability turn out when NCI-H2126 was run?
A: 0.775

Q: For SK-MES-1, which relative viability is on record?
A: 0.467

Q: How did the relative viability turn out when HARA was run?
A: 0.602

Q: Which relative viability does the source give for COR-L23 here?
A: 0.931

Q: How did the relative viability turn out when COR-L 105 was run?
A: 0.37

Q: With LC-2-ad as the cell line, how does the relative viability read?
A: 1.05

Q: Which relative viability does the source give for LU99A here?
A: 1.03

Q: How did the relative viability turn out when NCI-H2170 was run?
A: 0.276

Q: With NCI-H3122 as the cell line, how does the relative viability read?
A: 1.09

Q: IA-LM was tested. Which relative viability did it give?
A: 0.978

Q: With HCC-78 as the cell line, how does the relative viability read?
A: 0.71

Q: How did the relative viability turn out when A549 was run?
A: 1.23

Q: NCI-H1395 was tested. Which relative viability did it give?
A: 0.942

Q: Which relative viability does the source give for NCI-H1299 here?
A: 0.862

Q: Which relative viability does the source give for NCI-H1793 here?
A: 0.855

Q: For NCI-H1650, which relative viability is on record?
A: 0.719

Same assay, conditions: first compound 1 µM

Q: NCI-H838 was tested. Which relative viability did it give?
A: 0.805

Q: With NCI-H1651 as the cell line, how does the relative viability read?
A: 0.767

Q: With EBC-1 as the cell line, how does the relative viability read?
A: 0.215

Q: With NCI-H1734 as the cell line, how does the relative viability read?
A: 0.937

Q: How did the relative viability turn out when NCI-H2009 was run?
A: 0.906

Q: With EPLC-272H as the cell line, how does the relative viability read?
A: 1.02

Q: How did the relative viability turn out when PC-14 was run?
A: 0.324

Q: How did the relative viability turn out when LCLC-97TM1 was run?
A: 0.784

Q: With NCI-H596 as the cell line, how does the relative viability read?
A: 1.18

Q: With NCI-H2228 as the cell line, how does the relative viability read?
A: 1.28

Q: For EMC-BAC-2, which relative viability is on record?
A: 0.81

Q: Which relative viability does the source give for NCI-H2087 here?
A: 1.09

Q: How did the relative viability turn out when Calu-6 was run?
A: 1.06

Q: HCC-44 was tested. Which relative viability did it give?
A: 0.905

Q: For NCI-H1703, which relative viability is on record?
A: 0.189

Q: NCI-H647 was tested. Which relative viability did it give?
A: 1.08

Q: With LK-2 as the cell line, how does the relative viability read?
A: 0.851

Q: Which relative viability does the source give for NCI-H2126 here?
A: 0.71

Q: With SK-MES-1 as the cell line, how does the relative viability read?
A: 0.458

Q: How did the relative viability turn out when HARA was run?
A: 0.684

Q: With COR-L23 as the cell line, how does the relative viability read?
A: 0.987
